Test results taken from the supplement of paper PMC10307832.

Assays:
Assay in all cases: relative viability (nuclei count vs DMSO), 5 days (fraction); higher = more cells survive
UMC-11 = tested on: UMC-11
Summary of the method: (§1)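 Medians of duplicate plates are given as relative viability. That measure is the nuclei count in treated wells divided by the count in vehicle wells. Counts were taken on 4× images of lung cancer cell lines in 1536-well plates, 5 days after pin-tool dosing the day after seeding with one drug alone or a fixed anchor-drug dose plus five library-drug doses (not always all listed) in √10 steps.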

LCLC-103H = tested on: LCLC-103H
Summary of the method: as §1

HCC-827 = tested on: HCC-827
Summary of the method: as §1

NCI-H650 = tested on: NCI-H650
Summary of the method: as §1

NCI-H2347 = tested on: NCI-H2347
Summary of the method: as §1

NCI-H1975 = tested on: NCI-H1975
Summary of the method: as §1

NCI-H1355 = tested on: NCI-H1355
Summary of the method: as §1

RERF-LC-KJ = tested on: RERF-LC-KJ
Summary of the method: as §1

HCC-366 = tested on: HCC-366
Summary of the method: as §1

NCI-H1915 = tested on: NCI-H1915
Summary of the method: as §1

NCI-H2170 = tested on: NCI-H2170
Summary of the method: as §1

SK-MES-1 = tested on: SK-MES-1
Summary of the method: as §1

SW 1573 = tested on: SW 1573
Summary of the method: as §1

LC-2-ad = tested on: LC-2-ad
Summary of the method: as §1

NCI-H1993 = tested on: NCI-H1993
Summary of the method: as §1

SK-LU-1 = tested on: SK-LU-1
Summary of the method: as §1

NCI-H1755 = tested on: NCI-H1755
Summary of the method: as §1

A-427 = tested on: A-427
Summary of the method: as §1

NCI-H2342 = tested on: NCI-H2342
Summary of the method: as §1

NCI-H23 = tested on: NCI-H23
Summary of the method: as §1

NCI-H1734 = tested on: NCI-H1734
Summary of the method: as §1

NCI-H2228 = tested on: NCI-H2228
Summary of the method: as §1

Cc1csc(=NC2CCCCC2)n1/N=C/c1ccc(O)c(O)c1O [MIM1] + COc1cc2c(Oc3ccc(NC(=O)C4(C(=O)Nc5ccc(F)cc5)CC4)cc3F)ccnc2cc1OCCCN1CCOCC1 [Foretinib] (partner 0.25 µM)
relative viability (UMC-11; first compound 0.2 µM): 1.07 | relative viability (UMC-11; first compound 2 µM): 1.2 | relative viability (UMC-11; first compound 6.325 µM): 0.703 | relative viability (UMC-11; first compound 20 µM): 0.335 | relative viability (LCLC-103H; first compound 0.2 µM): 0.82 | relative viability (LCLC-103H; first compound 0.6325 µM): 0.833 | relative viability (LCLC-103H; first compound 2 µM): 0.942 | relative viability (LCLC-103H; first compound 6.325 µM): 0.545 | relative viability (LCLC-103H; first compound 20 µM): 0.364 | relative viability (HCC-827; first compound 0.2 µM): 1.04 | relative viability (HCC-827; first compound 0.6325 µM): 1 | relative viability (HCC-827; first compound 2 µM): 1.01 | relative viability (HCC-827; first compound 6.325 µM): 0.402 | relative viability (HCC-827; first compound 20 µM): 0.207 | relative viability (NCI-H650; first compound 0.2 µM): 1.05 | relative viability (NCI-H650; first compound 0.6325 µM): 1.05 | relative viability (NCI-H650; first compound 2 µM): 1.02 | relative viability (NCI-H650; first compound 6.325 µM): 0.924 | relative viability (NCI-H650; first compound 20 µM): 0.412 | relative viability (NCI-H2347; first compound 0.2 µM): 0.953 | relative viability (NCI-H2347; first compound 0.6325 µM): 0.568 | relative viability (NCI-H2347; first compound 2 µM): 0.567 | relative viability (NCI-H2347; first compound 6.325 µM): 1.18 | relative viability (NCI-H2347; first compound 20 µM): 0.445 | relative viability (NCI-H1975; first compound 0.2 µM): 0.905 | relative viability (NCI-H1975; first compound 0.6325 µM): 0.96 | relative viability (NCI-H1975; first compound 2 µM): 0.837 | relative viability (NCI-H1975; first compound 6.325 µM): 0.493 | relative viability (NCI-H1975; first compound 20 µM): 0.316 | relative viability (NCI-H1355; first compound 0.2 µM): 0.911 | relative viability (NCI-H1355; first compound 0.6325 µM): 0.885 | relative viability (NCI-H1355; first compound 2 µM): 0.976 | relative viability (NCI-H1355; first compound 6.325 µM): 0.87 | relative viability (NCI-H1355; first compound 20 µM): 0.629 | relative viability (RERF-LC-KJ; first compound 0.2 µM): 0.887 | relative viability (RERF-LC-KJ; first compound 0.6325 µM): 0.808 | relative viability (RERF-LC-KJ; first compound 2 µM): 0.803 | relative viability (RERF-LC-KJ; first compound 6.325 µM): 0.637 | relative viability (RERF-LC-KJ; first compound 20 µM): 0.24 | relative viability (HCC-366; first compound 0.2 µM): 0.927 | relative viability (HCC-366; first compound 2 µM): 0.993 | relative viability (HCC-366; first compound 6.325 µM): 0.782 | relative viability (HCC-366; first compound 20 µM): 0.077 | relative viability (NCI-H1915; first compound 0.2 µM): 1.13 | relative viability (NCI-H1915; first compound 0.6325 µM): 1.07 | relative viability (NCI-H1915; first compound 2 µM): 1.07 | relative viability (NCI-H1915; first compound 6.325 µM): 0.83 | relative viability (NCI-H1915; first compound 20 µM): 0.251 | relative viability (NCI-H2170; first compound 0.2 µM): 0.979 | relative viability (NCI-H2170; first compound 0.6325 µM): 1.01 | relative viability (NCI-H2170; first compound 2 µM): 0.824 | relative viability (NCI-H2170; first compound 6.325 µM): 0.77 | relative viability (NCI-H2170; first compound 20 µM): 0.295 | relative viability (SK-MES-1; first compound 0.2 µM): 0.897 | relative viability (SK-MES-1; first compound 0.6325 µM): 0.891 | relative viability (SK-MES-1; first compound 2 µM): 0.861 | relative viability (SK-MES-1; first compound 6.325 µM): 0.805 | relative viability (SK-MES-1; first compound 20 µM): 0.758 | relative viability (SW 1573; first compound 0.2 µM): 1.04 | relative viability (SW 1573; first compound 0.6325 µM): 0.963 | relative viability (SW 1573; first compound 2 µM): 0.809 | relative viability (SW 1573; first compound 6.325 µM): 0.871 | relative viability (SW 1573; first compound 20 µM): 0.539 | relative viability (LC-2-ad; first compound 0.2 µM): 0.896 | relative viability (LC-2-ad; first compound 0.6325 µM): 0.783 | relative viability (LC-2-ad; first compound 2 µM): 0.745 | relative viability (LC-2-ad; first compound 6.325 µM): 0.631 | relative viability (LC-2-ad; first compound 20 µM): 0.159 | relative viability (NCI-H1993; first compound 0.2 µM): 0.7 | relative viability (NCI-H1993; first compound 0.6325 µM): 0.715 | relative viability (NCI-H1993; first compound 2 µM): 0.671 | relative viability (NCI-H1993; first compound 6.325 µM): 0.659 | relative viability (NCI-H1993; first compound 20 µM): 0.64 | relative viability (SK-LU-1; first compound 0.2 µM): 0.849 | relative viability (SK-LU-1; first compound 0.6325 µM): 0.821 | relative viability (SK-LU-1; first compound 2 µM): 0.849 | relative viability (SK-LU-1; first compound 6.325 µM): 0.75 | relative viability (SK-LU-1; first compound 20 µM): 0.788 | relative viability (NCI-H1755; first compound 0.2 µM): 0.882 | relative viability (NCI-H1755; first compound 0.6325 µM): 0.927 | relative viability (NCI-H1755; first compound 2 µM): 0.902 | relative viability (NCI-H1755; first compound 6.325 µM): 0.72 | relative viability (NCI-H1755; first compound 20 µM): 0.563 | relative viability (A-427; first compound 0.2 µM): 1.15 | relative viability (A-427; first compound 2 µM): 1.05 | relative viability (A-427; first compound 6.325 µM): 1.07 | relative viability (A-427; first compound 20 µM): 0.25 | relative viability (NCI-H2342; first compound 0.2 µM): 1.25 | relative viability (NCI-H2342; first compound 0.6325 µM): 0.952 | relative viability (NCI-H2342; first compound 2 µM): 1.07 | relative viability (NCI-H2342; first compound 6.325 µM): 0.952 | relative viability (NCI-H2342; first compound 20 µM): 1.11 | relative viability (NCI-H23; first compound 0.2 µM): 1.07 | relative viability (NCI-H23; first compound 2 µM): 0.791 | relative viability (NCI-H23; first compound 6.325 µM): 0.812 | relative viability (NCI-H23; first compound 20 µM): 0.263 | relative viability (NCI-H1734; first compound 0.2 µM): 0.884 | relative viability (NCI-H1734; first compound 0.6325 µM): 0.886 | relative viability (NCI-H1734; first compound 2 µM): 0.772 | relative viability (NCI-H1734; first compound 6.325 µM): 0.478 | relative viability (NCI-H1734; first compound 20 µM): 0.255 | relative viability (NCI-H2228; first compound 0.2 µM): 1.06 | relative viability (NCI-H2228; first compound 0.6325 µM): 0.951 | relative viability (NCI-H2228; first compound 2 µM): 0.853 | relative viability (NCI-H2228; first compound 6.325 µM): 0.583 | relative viability (NCI-H2228; first compound 20 µM): 0.247
